Measurements: patent US8309573B2, “Salt of isoquinoline compound and crystal thereof” (Mitsubishi Tanabe Pharma Corporation, priority 2007, dated 2012)

Experiments:
[1] = physchem; settings: water, thermodynamic from solid
Protocol: This was subjected to ultrasonication on a water bath for 10 min, and gently shaken in a twin mixer (TM-282, AS ONE Corporation) at room temperature for 1 hr. After shaking, the mixture was centrifuged by a portable ultracentrifuge (10000 rpm×10 min., MC-150, TOMY SEIKO CO., LTD.) and the supernatant was filtered (Millex-LH, Millipore Corporation).

[2] = Hygroscopicity comparison test (adsorption isotherm curve measurement); format: physicochemical; settings: 0-95% RH, 25° C.
Protocol: An adsorption isotherm curve measurement was performed under the following conditions.
apparatus: DVS-1 (sms Ltd., UK)
measurement temperature: 25° C.
measurement operation: a sample was measured in a sample cup, sample weight was measured by successively changing the relative humidity at 50→0→95→0→50% RH.
The smaller weight change due to humidity is an important factor for the management of charge amount of the bulk drug for pharmaceutical products.

[3] = Chemical stability comparison test (one month preservation, purity by HPLC); format: physicochemical
Protocol: The sample after preservation was measured for chemical purity by HPLC. The HPLC conditions are shown below. • apparatus: SHIMADZU Corporation • column: Inertsil ODS-3V (GL Sciences Inc.) inner diameter 4.6 mm and length 150 mm • column oven: 40° C. • detection wavelength: 234 nm • measurement operation: a sample (about 1 mg) was measured in a vial container for HPLC, dissolved in a mixture (1 mL) of water/acetonitrile=1:1, and analyzed under the following conditions. • eluent composition: SOLUTION A 0.1% trifluoroacetic acid/water • SOLUTION B 0.1% trifluoroacetic acid/acetonitrile • gradient: SOLUTION B concentration: 5→100% (60 min) • mobile phase flow rate: 1.0 mL/min • injection volume: 5 μL
An increase rate of related substances after one month preservation was determined from the peak area in the HPLC chromatogram.

[4] = preserved one month at 40° C. 75% RH

Compound	solubility [1] [mg/mL]	moisture absorption [2]	moisture absorption, corresponding hydrated water [2] [hydrated water]	Increase rate of related substances (%) ([3]; preserved one month at 30° C.)	Increase rate of related substances (%) ([3]; preserved one month at 40° C.)	Increase rate of related substances (%) [3, 4]	Increase rate of related substances (%) ([3]; preserved one month at 50° C.)
Cc1cccc2c(=O)[nH]c(CCN3CCC[C@@H]3CO)cc12.Cl.O.O [monohydrochloride dihydrate, (R)-3-[2-(2-hydroxymethylpyrrolidin-1-yl)ethyl]-5-methyl-2H-isoquinolin-1-one monohydrochloride dihydrate]	45	11 % (w/w)	2	–	–	–	–
Cc1cccc2c(=O)[nH]c(CCN3CCC[C@@H]3CO)cc12 [free form, (R)-3-[2-(2-hydroxymethylpyrrolidin-1-yl)ethyl]-5-methyl-2H-isoquinolin-1-one]	≤ 1	–	–	+0.16%	+0.18%	+0.28%	+1.30%
anhydrous (R)-3-[2-(2-hydroxymethylpyrrolidin-1-yl)ethyl]-5-methyl-2H-isoquinolin-1-one monophosphate	–	0.5 % (w/w)	0.1	−0.01%	−0.01%	−0.02%	−0.01%
